A short description of series [1]: Compound stability in human liver microsomes. Type of series: in vitro ADME. The conditions noted are these: for half-life at 5 μM: compound 5 μM, NADPH 1.0 mM, 37° C.; for CLint scaled at 5 μM: in vivo CLint extrapolated. The method, then: (§1) Human or rat liver microsomes incubations were conducted in duplicate in polypropylene tubes. The typical incubation mixtures consisted of human or rat liver microsomes (0.5 mg protein/mL), compounds of interest (5 μM) and NADPH (1.0 mM) in a total volume of 200 μL potassium phosphate buffer (PBS, 100 mM, pH 7.4). Compounds were dissolved in DMSO and diluted with PBS such that the final concentration of DMSO was 0.05%. The enzymatic reactions were commenced with the addition of protein after a 3-min preincubation and incubated in a water bath open to the air at 37° C. Reactions were terminated at various time points (0, 5, 10, 15, 30, 60 min) by adding equal volume of ice-cold acetonitrile. The samples were stored at −80° C. until LC/MS/MS assays.
(§2) The concentrations of compounds in the incubation mixtures of human or rat liver microsomes were determined by a LC/MS/MS method. The ranges of the linearity in the concentration range were determined for each tested compounds.
(§3) A parallel incubation was performed using denatured microsomes as the negative control, and reactions were terminated at various time points (0, 15, 60 min) after incubation at 37° C.
(§4) Dextromethorphan (70 μM) was selected as the positive control, and reactions were terminated at various time points (0, 5, 10, 15, 30, 60 min) after incubation at 37° C. Both positive and negative control samples were included in each assay to ensure the integrity of the microsomal incubation system.
(§5) The concentrations of compounds in human or rat liver microsome incubations were plotted as a percentage of the relevant zero time point control for each reaction. The in vivo CLint were extrapolated (ref.: Naritomi, Y.; Terashita, S.; Kimura, S.; Suzuki, A.; Kagayama, A.; and Sugiyama, Y.; Prediction of human hepatic clearance from in vivo animal experiments and in vitro metabolic studies with liver microsomes from animals and humans. Drug Metab. Dispos., 2001, 29: 1316-1324).

Series [2] can be described thus: Pharmacokinetics after intravenous and oral administration in rats. It counts as in vivo. The conditions noted are these: for Clearance (CL) after iv dosing / AUC(0-t) / half-life / Vd: dose 1 mg/kg (Ex. 27: 0.72 mg/kg), iv dosing; for F: oral bioavailability; for AUC(0-t) / half-life / Vd: rat, plasma; for Vd: read-out: Vss. The protocol: The LC/MS/MS system used in the analysis consists of an Agilent 1200 Series vacuum degasser, binary pump, well-plate autosampler, thermostatted column compartment, the Agilent G6430 Triple Quadrupole Mass Spectrometer with an electrosprayionization (ESI) source. Quantitative analysis was carried out using MRM mode. The parameters for MRM transitions are in the Table A.
An Agilent XDB-C18, 2.1×30 mm, 3.5 μM column was used for the analysis. 5 μL of the samples were injected. Analysis condition: The mobile phase was 0.1% formic acid in water (A) and 0.1% formic acid in methanol (B). The flow rate was 0.4 mL/min. And the gradient of Mobile phase was in the Table B.
Alternatively, an Agilent 6330 series LC/MS/MS spectrometer equipped with G1312A binary pumps, a G1367A autosampler and a G1314C UV detector were used in the analysis. An ESI source was used on the LC/MS/MS spectrometer. The analysis was done in positive ion mode as appropriate and the MRM transition for each analyte was optimized using standard solution. A Capcell MP-C18 100×4.6 mm I.D., […] column (Phenomenex, Torrance, Calif., USA) was used during the analysis. The mobile phase was 5 mM ammonia acetate, 0.1% MeOH in water (A): 5 mM ammonia acetate, 0.1% MeOH in acetonitrile (B) (70:30, v/v). The flow rate was 0.6 mL/min. Column was maintained at ambient temperature. 20 μL of the samples were injected.
The compounds disclosed herein are assessed in pharmacokinetic studies in mice, rats, dogs or monkeys. The compounds are administered as a water solution, 2% HPMC+1% TWEEN®80 in water solution, 5% DMSO+5% solution in saline, 4% MC suspension or capsule. For the intravenous administration, the animals are generally given at 1 or 2 mg/kg dose. For the oral (p.o.) dosing, mice and rats are generally given 5 or 10 mg/kg dose, and dogs and monkeys are generally given 10 mg/kg dose. The blood samples (0.3 mL) are drawn at 0.25, 0.5, 1.0, 2.0, 3.0, 4.0, 6.0, 8.0, 12 and 24 h time points or 0.083, 0.25, 0.5, 1.0, 2.0, 4.0, 6.0, 8.0 and 24 h time points and centrifuged at 3,000 or 4000 rpm for 2 to 10 min. The plasma solutions are collected, and stored at −20° C. or −70° C. until analyzed by LC/MS/MS as described above.

The target in a further series is JAK1 (h) (Homo sapiens (Human), UniProt P23458). As to the kind of experiment: JAK1 kinase assay (33P-ATP filter binding, Millipore). Type of series: biochemical. The protocol:
Kinase assays can be performed by measurement of incorporation of γ-^33P ATP into immobilized myelin basic protein (MBP). High binding white 384 well plates (Greiner) are coated with MBP (Sigma #M−1891) by incubation of 60 μL/well of 20 μg/mL MBP in Tris-buffered saline (TBS; 50 mM Tris pH 8.0, 138 mM NaCl, 2.7 mM KCl) for 24 h at 4° C. Plates are washed 3× with 100 μL TBS. Kinase reactions are carried out in a total volume of 34 μL in kinase buffer (5 mM Hepes pH 7.6, 15 mM NaCl, 0.01% bovine gamma globulin (Sigma #I-5506), 10 mM MgCl2, 1 mM DTT, 0.02% TritonX-100). Compound dilutions are performed in DMSO and added to assay wells to a final DMSO concentration of 1%. Each data point is measured in duplicate, and at least two duplicate assays are performed for each individual compound determination. Enzyme is added to final concentrations of 10 nM or 20 nM, for example. A mixture of unlabeled ATP and γ-^33P ATP is added to start the reaction (2×10^6 cpm of γ-^33P ATP per well (3000 Ci/mmole) and 10 μM unlabeled ATP, typically. The reactions are carried out for 1 h at room temperature with shaking. Plates are washed 7× with TBS, followed by the addition of 50 μL/well scintillation fluid (Wallac). Plates are read using a Wallac Trilux counter. This is only one format of such assays; various other formats are possible, as known to one skilled in the art.
The above assay procedure can be used to determine the IC50 for inhibition and/or the inhibition constant, Ki. The IC50 is defined as the concentration of compound required to reduce the enzyme activity by 50% under the condition of the assay. The IC50 value is estimated by preparing a 10 point curve using a 1/2 log dilution series (for example, a typical curve may be prepared using the following compound concentrations: 3 μM, 1 μM, 0.3 μM, 0.1 μM, 0.03 μM, 0.01 μM, 0.003 μM, 0.001 μM, 0.0003 μM and 0 μM).
The kinase assays described herein were performed at Millipore UK Ltd, Dundee Technology Park, Dundee DD2 1SW, UK.

Series [3] in a line: Compound stability in rat liver microsomes. It counts as in vitro ADME. Conditions: for half-life at 5 μM: compound 5 μM, NADPH 1.0 mM, 37° C.; for CLint scaled at 5 μM: in vivo CLint extrapolated. The protocol: as §1, §2, §3, §4, §5
The mark [4] stands for this setting: pH 7.4, Human liver microsomes 0.5 mg protein/mL.
Setting [5] is: pH 7.4, Rat liver microsomes 0.5 mg protein/mL.

JAK1 (h), sequence (P23458 whole entry): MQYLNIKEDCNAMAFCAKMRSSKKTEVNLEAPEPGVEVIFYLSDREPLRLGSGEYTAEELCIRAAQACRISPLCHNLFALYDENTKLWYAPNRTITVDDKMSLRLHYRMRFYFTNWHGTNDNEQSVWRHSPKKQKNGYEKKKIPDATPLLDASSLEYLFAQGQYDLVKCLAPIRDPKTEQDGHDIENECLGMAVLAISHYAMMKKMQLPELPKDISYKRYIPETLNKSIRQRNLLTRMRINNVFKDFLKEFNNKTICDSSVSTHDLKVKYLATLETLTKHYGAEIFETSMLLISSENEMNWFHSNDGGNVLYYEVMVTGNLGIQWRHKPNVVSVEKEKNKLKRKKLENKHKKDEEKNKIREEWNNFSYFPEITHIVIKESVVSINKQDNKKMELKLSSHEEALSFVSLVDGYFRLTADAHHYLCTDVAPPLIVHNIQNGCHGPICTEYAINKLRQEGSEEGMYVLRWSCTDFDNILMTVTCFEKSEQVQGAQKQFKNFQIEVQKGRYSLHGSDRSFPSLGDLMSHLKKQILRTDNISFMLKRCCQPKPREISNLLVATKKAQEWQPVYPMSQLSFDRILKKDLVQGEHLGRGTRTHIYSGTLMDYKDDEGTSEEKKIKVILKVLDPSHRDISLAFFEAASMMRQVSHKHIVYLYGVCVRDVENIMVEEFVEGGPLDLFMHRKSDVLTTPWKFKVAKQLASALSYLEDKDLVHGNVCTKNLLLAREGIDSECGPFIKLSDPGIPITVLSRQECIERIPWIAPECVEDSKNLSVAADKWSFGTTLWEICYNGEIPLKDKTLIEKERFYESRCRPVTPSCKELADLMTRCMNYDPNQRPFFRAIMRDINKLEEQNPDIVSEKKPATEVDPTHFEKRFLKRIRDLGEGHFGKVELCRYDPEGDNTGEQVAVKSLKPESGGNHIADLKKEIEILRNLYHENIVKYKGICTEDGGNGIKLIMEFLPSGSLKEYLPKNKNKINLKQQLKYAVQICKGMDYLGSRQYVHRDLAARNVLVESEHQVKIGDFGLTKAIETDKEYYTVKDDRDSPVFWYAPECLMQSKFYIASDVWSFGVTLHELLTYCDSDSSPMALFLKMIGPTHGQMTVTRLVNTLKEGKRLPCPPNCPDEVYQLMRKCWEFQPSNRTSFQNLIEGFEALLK

A word on the half-life: it is how long it takes for the measured level to halve. A low value points to rapid decline. One may read the CLint scaled as the rate of metabolic loss divided by the concentration. In general, AUC(0-t) refers to exposure summed from dosing to a finite time, without extrapolation to infinity. High values mean high exposure, low ones low exposure. By IC50 is commonly meant the concentration at which inhibition is half-maximal. Low values mean inhibition by little substance, high ones a need for much substance. On to `Cc1cnc(Nc2cnn(C)c2)nc1NC1CC2CN(S(C)(=O)=O)CC2C1` (stereo not drawn) [Ex. 62, 5-methyl-N^2-(1-methyl-1H-pyrazol-4-yl)-N^4-(2-(methylsulfonyl)octahydrocyclopenta[c]pyrrol-5-yl)pyrimidine-2,4-diamine], for which the half-life at 5 μM in series [1] (setting [4]) turned out to be 4.52 h. Also, the CLint scaled at 5 μM in series [1] (pH 7.4, Human liver microsomes) is 6.41 mL/min/kg. In addition, in series [2], the “Clearance (CL) after iv dosing” value was found to be 82.8 mL/min/kg, the F was found to be 29.6%, the AUC(0-t) turned out to be 184 ng·h/mL and the half-life was 0.81 h. For the same compound, in series [2], the Vd came out at 5.43 L/kg. The compound further yielded an IC50 at JAK1 (h) of 4 nM. This compound also had a half-life at 5 μM in series [3] (setting [5]) of 1.35 h. Moreover, in series [3] (pH 7.4, Rat liver microsomes), the CLint scaled at 5 μM is 30.6 mL/min/kg.

`N#CCC(=O)N1CC2CC(Nc3nc(Nc4cnn(CCO)c4)ncc3Cl)CC2C1` (stereo not drawn) [Ex. 44, 3-(5-((5-chloro-2-((1-(2-hydroxyethyl)-1H-pyrazol-4-yl)amino)pyrimidin-4-yl)amino)hexahydrocyclopenta[c]pyrrol-2(1H)-yl)-3-oxopropanenitrile]: the half-life at 5 μM in series [1] (setting [4]) was determined as 4.05 h. In series [1] (pH 7.4, Human liver microsomes), the CLint scaled at 5 μM is 7.15 mL/min/kg. In series [2], the “Clearance (CL) after iv dosing” value worked out at 49.3 mL/min/kg, the F came out at 12.0%, the AUC(0-t) amounted to 343 ng·h/mL and the half-life was 0.55 h. Also, the Vd in series [2] stood at 1.09 L/kg. In addition, the IC50 on JAK1 (h) stood at 57 nM. Besides, the half-life at 5 μM in series [3] (setting [5]) was 6.64 h. The CLint scaled at 5 μM in series [3] (pH 7.4, Rat liver microsomes) is 6.24 mL/min/kg.

Regarding `Cc1cnc(Nc2cnn(C)c2)nc1NC1CN(C(=O)CC#N)CC12CCCC2` (stereo not drawn) [Ex. 8, 3-(4-((5-methyl-2-((1-methyl-1H-pyrazol-4-yl)amino)pyrimidin-4-yl)amino)-2-azaspiro[4.4]nonan-2-yl)-3-oxopropanenitrile], in series [2], the “Clearance (CL) after iv dosing” value is 61.7 mL/min/kg, the F worked out at 17.5%, the AUC(0-t) is 272 ng·h/mL and the half-life is 0.88 h. Moreover, the Vd in series [2] was determined as 2.85 L/kg. This compound also gave an IC50 at JAK1 (h) of 11 nM.

`N#CCC(=O)N1CCC2(CCC(Nc3nc(Nc4cnn(CCO)c4)ncc3Cl)CC2)CC1` [Ex. 50, 3-(9-((5-chloro-2-((1-(2-hydroxyethyl)-1H-pyrazol-4-yl)amino)pyrimidin-4-yl)amino)-3-azaspiro[5.5]undecan-3-yl)-3-oxopropanenitrile]: the half-life at 5 μM in series [1] (human, liver microsomes, pH 7.4, Human liver microsomes 0.5 mg protein/mL) came out at 8.95 h. The CLint scaled at 5 μM in series [1] (human, liver microsomes, pH 7.4, Human liver microsomes) was 3.24 mL/min/kg. Further, in series [2], the “Clearance (CL) after iv dosing” value was 43.2 mL/min/kg, the F is recorded as 17.3%, the AUC(0-t) was found to be 384 ng·h/mL and the half-life was 0.99 h. Also, in series [2], the Vd turned out to be 1.93 L/kg. In addition, the IC50 at JAK1 (h) was found to be 14 nM. For the same compound, the half-life at 5 μM in series [3] (rat, liver microsomes, pH 7.4, Rat liver microsomes 0.5 mg protein/mL) is 5.13 h. In series [3] (rat, liver microsomes, pH 7.4, Rat liver microsomes), the CLint scaled at 5 μM is 8.07 mL/min/kg.

Regarding `Cc1nn(C)cc1Nc1ncc(Cl)c(NC2CC3CN(C(=O)CC#N)CC3C2)n1` (stereo not drawn) [Ex. 64, 3-(5-((5-chloro-2-((1,3-dimethyl-1H-pyrazol-4-yl)amino)pyrimidin-4-yl)amino)hexahydrocyclopenta[c]pyrrol-2(1H)-yl)-3-oxopropanenitrile], the half-life at 5 μM in series [1] (setting [4]) turned out to be 1.05 h. Also, the CLint scaled at 5 μM in series [1] (pH 7.4, Human liver microsomes) is 27.7 mL/min/kg. Moreover, in series [2], the “Clearance (CL) after iv dosing” value came out at 53.2 mL/min/kg, the F is 48.1%, the AUC(0-t) stood at 315 ng·h/mL and the half-life is 0.41 h. Also, the Vd in series [2] worked out at 1.31 L/kg. Besides, the IC50 at JAK1 (h) amounted to 2 nM. In addition, in series [3] (setting [5]), the half-life at 5 μM is 0.559 h. For the same compound, the CLint scaled at 5 μM in series [3] (pH 7.4, Rat liver microsomes) was 74 mL/min/kg.

Turning to `Cc1cnc(Nc2cnn(C)c2)nc1NC1CC2CN(c3ccc(C#N)cn3)CC2C1` (stereo not drawn) [Ex. 59, 6-(5-((5-methyl-2-((1-methyl-1H-pyrazol-4-yl)amino)pyrimidin-4-yl)amino)hexahydrocyclopenta[c]pyrrol-2(1H)-yl)nicotinonitrile], in series [2], the “Clearance (CL) after iv dosing” value came out at 26.8 mL/min/kg, the F is on record as 36.9%, the AUC(0-t) was 648 ng·h/mL and the half-life was 0.97 h. Also, the Vd in series [2] turned out to be 1.76 L/kg. At JAK1 (h), this compound showed an IC50 of 1 nM.

With `Cc1cnc(Nc2cnn(C)c2)nc1NC1CC2CN(C(=O)CC#N)CC2C1` (stereo not drawn) [Ex. 60, 3-(5-((5-methyl-2-((1-methyl-1H-pyrazol-4-yl)amino)pyrimidin-4-yl)amino)hexahydrocyclopenta[c]pyrrol-2(1H)-yl)-3-oxopropanenitrile], the half-life at 5 μM is 4.07 h in series [1] (setting [4]) and 4.01 h in series [3] (setting [5]). Further, the CLint scaled at 5 μM in series [1] (pH 7.4, Human liver microsomes) was 7.11 mL/min/kg; in series [3] (pH 7.4, Rat liver microsomes), 10.3 mL/min/kg. Further, the IC50 on JAK1 (h) was 5 nM.

Regarding `Cn1cc(Nc2ncc(Cl)c(NC3CN(C(=O)CC#N)CC34CCCC4)n2)cn1` (stereo not drawn) [Ex. 18, 3-(4-((5-chloro-2-((1-methyl-1H-pyrazol-4-yl)amino)pyrimidin-4-yl)amino)-2-azaspiro[4.4]nonan-2-yl)-3-oxopropanenitrile], in series [2], the “Clearance (CL) after iv dosing” value came out at 45.8 mL/min/kg, the F was 55.9%, the AUC(0-t) amounted to 731 ng·h/mL and the half-life is 2.26 h. For the same compound, in series [2], the Vd was determined as 4.32 L/kg. This compound also came in with an IC50 at JAK1 (h) of 7 nM.
